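All cell lines were grown in 96-well plates and treated with compound for 48 hours. TGI is the concentration that stops growth completely.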 Where a SMILES comes first, the peptide text is derived from it. [ ]: non-standard residue; d: D form. The star is where a group is joined. Phe(4-NO2) = N[CH](Cc1ccc([N+](=O)[O-])cc1)C(=O)O; Cbz = O=C(OCc1ccccc1)*
Columns and labels:
Assay in all cases: DTP human tumour cell line panel, 48 h
OVCAR-5 ovarian = system: OVCAR-5 ovarian
UACC-257 melanoma = system: UACC-257 melanoma
OVCAR-3 ovarian = system: OVCAR-3 ovarian
NCI-H23 lung = system: NCI-H23 lung
KM12 colon = system: KM12 colon

Structure (SMILES) | TGI (OVCAR-5 ovarian) [µM] | TGI (UACC-257 melanoma) [µM] | TGI (OVCAR-3 ovarian) [µM] | TGI (NCI-H23 lung) [µM] | TGI (KM12 colon) [µM]
CC(C)(C)N1C(=O)c2ccccc2C1(O)C(F)(F)F (stereo unspecified) | > 100 | > 100 | > 100 | > 100 | > 100
CN(C)C(=S)N1C(=S)N(c2ccccc2)C(=Nc2ccccc2)C1=Nc1ccccc1 | > 100 | > 100 |  | > 100 | > 100
Cc1c(C#N)c(N)[nH]c(=S)c1C#N | > 100 | > 100 | > 100 | > 100 | > 100
CC(C)(C)OC(=O)[C@@H]1CCC(=S)N1Cc1ccccc1 | > 100 | > 100 | > 100 | > 100 | > 100
COc1cccc(C(=O)Nc2c3ccccc3nc3ccccc23)c1OC | > 100 | > 100 | > 100 | > 100 | > 100
C=CCOc1ccc(/C(N=Nc2ccc(C)cc2)=N/NC(=O)c2ccccc2)cc1OC | > 100 | 49.1 | > 100 | 69.1 | 48.7
Cc1cc(N)ccc1N=Nc1ccc(S(=O)(=O)CCOS(=O)(=O)O)cc1 | 26.4 | 24.3 | 9.55 | 24.5 | 13.2
CCSC1=N/C(=C\c2ccco2)C(NN)=N1 | > 50 | > 50 | > 50 | > 50 | > 50
COc1ccc(/C=N/n2c(=O)[nH]c3ccccc3c2=O)cc1 | > 100 | > 100 | > 100 | > 100 | > 100
O=C(Nc1ccc(Cl)cc1)NS(=O)(=O)c1coc2ccccc2c1=O | > 10 | > 10 | > 10 | > 10 | > 10
CCN(CC)C(=S)SNc1ccc(S(N)(=O)=O)cc1 | > 72.3 | > 100 |  | > 100 | > 100
C=C[C@]1(O)CCC[C@]2(C)C(=O)CCC12C (stereo partly specified) | > 100 | > 100 | > 100 | > 100 | > 100
Cc1nn2c(=O)c([N+](=O)[O-])c(/C=C/c3ccco3)nc2s1 | > 100 | > 100 | > 100 | > 100 | > 100
CC1=C(C)CC(C#N)(C#N)C(C#N)(C#N)C1 | > 10 | > 10 | 9.68 | > 6.63 | > 10
Cc1cc(=O)oc2cc(SC(=O)N(C)C)ccc12 | > 100 | > 100 | > 100 | > 100 | > 100
CC1=CC=C2c3ccccc3C=CN2C(=O)C1 | > 100 | > 100 | > 100 | > 100 | > 100
Cc1ccc2c3c(cnc2n1)C(=O)OCCN3C | > 100 | > 100 | > 100 | > 100 | > 100
O=C(/C=C/c1ccc(O)c(O)c1)OCc1ccccc1 | > 100 | 59.1 | > 100 | 60.3 | > 100
CCOC(=O)/C(C=Nc1c(C)n(C)n(-c2ccccc2)c1=O)=C(/O)c1ccccc1 | > 100 | > 100 | > 100 | > 100 | 0.746
COc1ccc(N=Nc2c(C)c(C#N)c(=S)n(C3OC(COC(C)=O)C(OC(C)=O)C(OC(C)=O)C3OC(C)=O)c2C)cc1 (stereo unspecified) | > 100 | > 100 | > 100 | > 100 | > 100
CCOC(=O)CC(=O)C(=O)NNC1=NCCN1 | > 100 | > 100 | > 100 | > 100 | > 100
CCOC(=O)CCC(NC(=O)OCc1ccccc1)C(=O)NC(CCC(=O)OCC)C(=O)NC(Cc1ccc([N+](=O)[O-])cc1)C(=O)NC(CCC(=O)OCC)C(=O)NC(CCC(=O)OCC)C(=O)OCC (stereo unspecified) (Cbz-E(OEt)E(OEt)[Phe(4-NO2)]E(OEt)E(OEt)-OEt; configuration not given here) | > 100 | > 100 |  | > 100 | > 100
N#CC1(C#N)NC(c2cccnc2)C(C#N)(C#N)NC1c1cccnc1 (stereo unspecified) | > 100 | > 100 | > 100 | > 100 | > 100
CC1(C)O[C@H]([C@H](O)c2nnc3ccc(Cl)nn23)[C@@H]([C@H]2COC(C)(C)O2)O1 | > 100 | > 100 | > 100 | > 100 | > 100
CCOC(=O)C(NC(=O)C(CCCCNP(=O)(OCC)OCC)NC(=O)C(C)NC(C)=O)C(C)C (stereo unspecified) | > 100 | > 100 | > 100 | > 100 | > 100
O=C1C=CC(=O)c2c1cc([N+](=O)[O-])c1ccoc21 | 35.4 | 32.4 | 70.2 | 46.2 | 31.9

Structure (SMILES) | TGI (OVCAR-5 ovarian) [µM] | TGI (UACC-257 melanoma) [µM] | TGI (OVCAR-3 ovarian) [µM] | TGI (NCI-H23 lung) [µM] | TGI (KM12 colon) [µM]
O=C(NO)c1ccc(OCc2cccc(Cl)c2)cc1 | > 40.8 | 46.8 | > 64.1 | 20.9 | 29.9
N=c1oc2c(Br)cc(Br)cc2cc1C(=O)Nc1ccccn1 | > 100 | > 100 | > 100 | > 100 | > 100
Cc1[nH]n(C2=NCCN2)c(=O)c1C | > 100 | > 100 | > 100 | > 100 | > 100
NC1OC(COC(=O)c2ccccc2)C(O)C(OC(=O)c2ccccc2)C1OC(=O)c1ccccc1 (stereo unspecified) | 48.1 | 47.2 | 75.5 | 61.9 | 
Cc1nnc2sc(Cl)nn12 | 44.5 |  | 33.6 | 34.8 | 28.6
COc1ccc2c(c1)CCN=C2Cc1ccccc1CCCl | > 100 | 88.9 | > 100 | 81.8 | 74.6
CC1(C)C(C#N)=[N+]([O-])C(C)(C)N1O | > 100 | > 100 | > 100 | > 100 | > 100
COC(=O)C(Cc1ccccc1)NC(=O)C(CCC(=O)OCc1ccccc1)NC(=O)OC(C)(C)C (stereo unspecified) | > 100 | > 100 | > 100 | > 100 | > 100
COc1ccc2oc(=Nc3ccccc3)c(C(N)=O)cc2c1 | > 100 | > 100 | > 100 | > 100 | > 100
CC1(C)Oc2ccc3c(=O)c(-c4ccccc4)c(-c4ccccc4)oc3c2C1C(=O)O (stereo unspecified) | > 100 | > 100 | > 100 | > 100 | 
C=C(C)CNC(=S)N(N)c1ccc(OC)cc1 | > 100 | > 100 | > 100 | > 100 | > 100
Cc1n[n+](CC(=O)c2ccccc2)c2sc(N)nn12 | > 100 | > 100 | > 100 | > 100 | > 100
CCOC(=O)N1CC2(C)C=CC1C(C(=O)OC)C2 (stereo unspecified) | > 100 | > 100 | > 100 | > 100 | > 100
CCOC(=O)[C@@H]1OC(c2ccccc2)O[C@H]1C(=O)OCC | > 100 | > 100 | > 100 | > 100 | > 100
CCC(=O)C1(N2CCOCC2)CCN(CCCC(=O)c2ccc(F)cc2)CC1 | > 100 |  | > 100 | > 100 | > 100
CC(C)/C(Cl)=N/OC(=O)Nc1cccc(C(F)(F)F)c1 | 34 | 29.5 | 8.12 | 31.3 | 29.8
Cc1ccc(/C=N/Nc2nc3ccccc3s2)s1 | > 100 | > 100 | > 100 | > 100 | > 100
O=C(Nc1cccc(NC(=O)C(=O)C2CCC3=C(Sc4ccccc4N3)C2=O)n1)C(=O)C1CCC2=C(Sc3ccccc3N2)C1=O (stereo unspecified) | > 100 | > 100 | > 100 | > 100 | > 100
CCCCCN1CCN(c2ncccn2)CC1 | > 100 | > 100 | > 100 | > 100 | > 100
Cn1c2c(c3ccccc31)CCN1OCC=C[C@@H](C(=O)O)[C@@H]21 | > 100 | > 100 | > 100 |  | > 100
COc1ccc(C2=Nn3c(nc4sc(C)c(C)c4c3=O)SC2)cc1 | > 100 | > 100 | > 100 | > 100 | > 100
O=C1c2sc(-c3ccc(F)cc3)cc2-n2cccc21 | > 100 | > 100 | > 100 |  | > 100
Cc1cccc(NC(=S)Nc2ccc([N+](=O)[O-])cc2)n1 |  | > 100 |  | > 100 | > 100
O=C1CCCC2=C1CC1=C(CCCC1=O)N2c1ccccc1C(=O)O | > 100 |  | > 100 | > 100 | > 100
Cc1ccccc1N=CN(C)C | > 100 | 71.1 | 81.2 | 61.8 | 
O=c1[nH]c(=O)n(C2OC(CO)C(O)C2O)c2ncc(-c3ccc(-c4ccccc4)cc3)nc12 (stereo unspecified) | > 20 | > 20 |  | > 20 | > 20
